Measured values: the supplement of paper PMC9763283
Values joined by “and” are separate entries in the source; they are usually repeats but may differ in a detail not shown here. Identical values can stand only once.

Assays:
Experiment in all cases: area under growth-rate inhibition curve (AUC GRI) (dimensionless (GR-based AUC)); higher = less growth inhibition
Conditions in all cases: exposure time: 72 h; concentrations: 0.1, 1, 10 uM
BT474-LTR = system: BT474-LTR
Outline: (§1)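 Six breast cancer cell line models (two triple-negative lines, plus parental and lapatinib + trastuzumab-resistant HER2+ lines) were plated at optimised log-phase densities and exposed to compound at 0.1, 1 or 10 µM for 72 h. Cells were fixed in 4% paraformaldehyde, and nuclei were stained with Hoechst 33342 or DAPI, imaged and counted. Area under the growth-rate inhibition curve came from 2 biological replicates, with growth corrected using Day 0 plates, untreated Day 3 plates and DMSO controls.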

SKBR3-P = system: SKBR3-P
Outline: as §1

BT474-P = system: BT474-P
Outline: as §1

SKBR3-LTR = system: SKBR3-LTR
Outline: as §1

MDA-MB-231 = system: MDA-MB-231
Outline: as §1

MDA-MB-468 = system: MDA-MB-468
Outline: as §1

Structure (SMILES) | area under growth-rate inhibition curve (BT474-LTR) | area under growth-rate inhibition curve (SKBR3-P) | area under growth-rate inhibition curve (BT474-P) | area under growth-rate inhibition curve (SKBR3-LTR) | area under growth-rate inhibition curve (MDA-MB-231) | area under growth-rate inhibition curve (MDA-MB-468)
CN1CCC(=C2c3ccccc3CCc3cccnc32)CC1.O=C(O)C=CC(=O)O.O=C(O)C=CC(=O)O [Azatadine dimaleate] | 1.12 | 1.02 | 1.07 | 1.01 | 1.05 | 1.05
Br.Cc1ccc(Sc2ccccc2N2CCNCC2)c(C)c1 | 0.912 | 0.872 | 0.865 | 0.929 | 0.879 | 0.885
CN1CCCCC1Cn1cc(C(=O)c2cc([N+](=O)[O-])ccc2I)c2ccccc21 (stereo unspecified) [AM1241] | 1 | 0.998 | 0.977 | 1.02 | 0.987 | 0.972
COc1ccccc1Oc1c(NS(=O)(=O)c2ccc(C(C)(C)C)cc2)nc(-c2ncccn2)nc1OCCO [Bosentan] | 1.08 | 1.02 | 1.03 | 1.05 | 1.03 | 1.03
Cc1ccccc1C(=O)Nc1ccc(C(=O)N2CCCC(O)c3cc(Cl)ccc32)c(C)c1 (stereo unspecified) [Tolvaptan] | 1.03 | 1.02 | 1 | 1.03 | 1.01 | 1.02
CC(=O)O[C@]1(C(C)=O)CC[C@H]2[C@@H]3C[C@H](C)C4=CC(=O)CC[C@]4(C)[C@H]3CC[C@@]21C [Medroxyprogesterone acetate] | 1.02 | 0.953 | 0.945 | 1.01 | 1.03 | 1
CCN(CC)CC#CCOC(=O)C(O)(c1ccccc1)C1CCCCC1.[Cl-].[H+] (stereo unspecified) [Oxybutynin chloride] | 1.1 | 0.999 | 1.02 | 1.04 | 1.04 | 0.992
CC(C)(C)NC[C@@H](O)COc1nsnc1N1CCOCC1.O=C(O)/C=C\C(=O)O [Timolol Maleate] | 1.11 | 1.02 | 1.04 | 1.06 | 1.03 | 1.04
CCc1c(C(=O)NCCc2ccc(N3CCCCC3)cc2)[nH]c2ccc(Cl)cc12 | 1.06 | 0.994 | 1.04 | 1.09 | 1.02 | 0.994
CCN(CC)CCOC(=O)c1ccc(N)cc1.[Cl-].[H+] [procaine] | 1.05 | 1.01 | 1.02 | 1.07 | 1.03 | 1.03
CN1[C@@H]2CC[C@H]1CC(OC(=O)C1C=Nc3ccccc31)C2.[Cl-].[H+] (stereo partly specified) [Tropisetron] | 1.09 | 0.976 | 1.02 | 1.06 | 1.03 | 1.02
C=CC[N+]1(C2CC3C4CCC5CC(O)C(N6CCOCC6)CC5(C)C4CCC3(C)C2OC(C)=O)CCCC1.[Br-] (stereo unspecified) [Rocuronium Bromide] | 1.1 | 1.03 | 1.07 | 1.05 | 1.02 | 1.03
[Cl-].[H+].c1ccc(CC2=NCCN2)cc1 [Tolazoline HCl] | 1.1 | 1.02 | 1.06 | 1.1 | 1.04 | 1.05
COc1cc(C(C)=O)ccc1OCCCN1CCC(c2noc3cc(F)ccc23)CC1 [Iloperidone] | 1.02 | 0.991 | 0.979 | 1.07 | 1.04 | 1.03
O=C(NCC1CCOCC1)c1cnc(Nc2ccc(Cl)cc2Cl)nc1C(F)(F)F | 1.04 | 1.02 | 0.983 | 1.05 | 1 | 1.01
CN1CCCC1Cc1c[nH]c2ccc(CCS(=O)(=O)c3ccccc3)cc12.[Br-].[H+] (stereo unspecified) [Eletriptan HBr] | 1.14 | 1.01 | 1.03 | 1.03 | 1.04 | 1.02
CNC(=NCCSCc1nc[nH]c1C)NC#N [Cimetidine] | 1.05 and 1.12 | 1.02 | 1.02 and 1.06 | 1.05 and 1.06 | 1.04 and 1.05 | 1.04 and 1.03
OC(CNCC(O)C1CCc2cc(F)ccc2O1)C1CCc2cc(F)ccc2O1.[Cl-].[H+] (stereo unspecified) [Nebivolol] | 0.88 | 0.938 | 0.882 | 0.853 | 0.874 | 0.805
O=C1CCCC2C3CCCN4CCCC(CN12)C34 (single isomer, unassigned; (+)) [(+)-Matrine] | 1.08 | 1.02 | 1.06 | 1.09 | 1.03 | 1.01
CN(C)CC/C=C1/c2ccccc2Sc2ccc(Cl)cc21 [Chlorprothixene] | 1.01 | 0.97 | 0.997 | 1.03 | 1.02 | 0.931
C[C@@]12N[C@@H](Cc3ccccc31)c1ccccc12.O=C(O)/C=C/C(=O)O [(-)-MK 801 Maleate] | 1.08 | 1.03 | 1.03 | 1.06 | 1.03 | 1.04
CNCc1ccc(C)c(NC(=O)c2ccc(Nc3nc(-c4ccccc4)c4ccccc4n3)cc2)c1 | 1.08 | 0.876 | 0.853 | 0.914 | 0.877 | 0.856
CCOC(=O)c1ncn2c1CN(C)C(=O)c1cc(F)ccc1-2 [Flumazenil] | 1.06 | 0.989 | 1.03 | 1.03 | 1.01 | 1.02
[Cl-].[H+].c1ccc2c(c1)CCCC2C1=NCCN1 (stereo unspecified) [Tetrahydrozoline HCl] | 1.07 | 1.02 | 1.03 | 1.02 | 1.01 | 1.03
O=S(=O)(c1ccccc1)c1cnc2c(N3CCNCC3)cccc2c1 | 1.08 | 0.997 | 0.99 | 1.05 | 1.03 | 1.01
CCN(CC)CCCCN1c2ccccc2Oc2ccc(Cl)cc21.Cl [10-DEBC hydrochlorid] | 0.995 | 1.04 | 1.04 | 1.05 | 1.04 | 1.06
